Data set [1] is described as follows: CC50 assay in the anti-HCV replicon assay (CellTiter-Glo). The class given is cell-based, human. The note with it: human, Huh-7 hepatoma cells harbouring an HCV replicon; Huh-7 HCV replicon cells, 3 days incubation, CellTiter-Glo luminescence. The gist of the method: (§1)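 Huh-7 cells harbouring an HCV replicon (6000/well) incubated 3 days at 37° C with 3-fold serially diluted compound (0.5% DMSO final where used). EC50 from luciferase luminescence of lysed cells; CC50 from CellTiter-Glo luminescence in parallel plates.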
For orientation: Replicon systems follow genome replication, usually without infectious particles.

For the next data set, the system named is HCV replicon. In words: Anti-HCV replicon assay, EC50 (luciferase readout). It is filed as cell-based. The note with it: Hepatitis C virus, 72 h; Huh-7 HCV replicon cells, 3 days incubation, luciferase luminescence. The essentials: as §1

SMILES strings stand for the structures.

In data set [1], `CCOc1nc(N)nc2ccc(-c3ccc(C(=O)NC(C)(C)C)cc3)cc12` [Example 153, 4-(2-Amino-4-ethoxy-quinazolin-6-yl)-N-tert-butyl-benzamide] showed a CC50 at 3 days of 10 to 20 µM. In the data set on HCV replicon, this compound returned an EC50 of 0.3 to 1 µM.

`CCOc1nc(N)nc2ccc(-c3ccc(C(=O)NCCN(C)C)cc3)cc12` [Example 159] displayed a CC50 at 3 days in data set [1] of less than 10 µM. The compound also came in with an EC50 in the data set on HCV replicon of less than 0.3 µM.

For `CCOc1nc(NCc2ccc(S(N)(=O)=O)cc2)nc2ccc(-c3cccc(S(N)(=O)=O)c3)cc12` [Example 252, 4-{[6-(3-aminosulfonyl-phenyl)-4-ethoxy-quinazolin-2-ylamino]-methyl}-benzenesulfonamide], in data set [1], the CC50 at 3 days was less than 10 µM. Moreover, in the data set on HCV replicon, the EC50 was less than 0.3 µM.

As to `CC(C)Oc1nc(N)nc2ccc(-c3ccsc3)cc12` [Example 89, 4-Isopropoxy-6-thiophen-3-yl-quinazolin-2-ylamine], the CC50 at 3 days in data set [1] is 10 to 20 µM. In addition, the EC50 in the data set with HCV replicon lay within 0.3 to 1 µM.

The compound `Nc1nc(OCCN2CCOCC2)c2cc(-c3cc4ccccc4s3)ccc2n1` [Example 240, 6-Benzo[b]thiophen-2-yl-4-(2-morpholin-4-yl-ethoxy)-quinazolin-2-ylamine] had a CC50 at 3 days in data set [1] greater than 20 µM. This compound returned an EC50 in the data set on HCV replicon of 1 to 10 µM.

For `CC(C)Oc1nc(N)nc2ccc(-c3ccc(Cl)cc3Cl)cc12` [Example 80, 6-(2,4-Dichloro-phenyl)-4-isopropoxy-quinazolin-2-ylamine], the CC50 at 3 days in data set [1] was greater than 20 µM. The EC50 in the data set with HCV replicon was in the range of 1 to 10 µM.

Take `COCCOc1nc(N)nc2ccc(-c3ccco3)cc12` [Example 60, 4-(2-Methoxy-ethoxy)-6-furan-2-yl-quinazolin-2-ylamine]: the CC50 at 3 days in data set [1] was greater than 20 µM. Further, the EC50 in the data set on HCV replicon lay in the range of 1 to 10 µM.

For the compound `Nc1nc(O[C@H]2CCOC2)c2cc(-c3ccc(C(=O)NC4CC4)cc3)ccc2n1` [Example 215, (S)-4-[2-Amino-4-(tetrahydro-furan-3-yloxy)-quinazolin-6-yl]-N-cyclopropyl-benzamide], the CC50 at 3 days in data set [1] is greater than 20 µM. This compound also had an EC50 in the data set with HCV replicon of less than 0.3 µM.

Turning to `CC(C)NC(=O)c1ccc(-c2ccc3nc(N)nc(OCCF)c3c2)cc1` [Example 202, 4-[2-Amino-4-(2-fluoro-ethoxy)-quinazolin-6-yl]-N-isopropyl-benzamide], the CC50 at 3 days in data set [1] is greater than 20 µM. This compound also registered an EC50 in the data set on HCV replicon of 1 to 10 µM.

In the case of `CC(C)Oc1nc(N)nc2ccc(-c3ccc(C(=O)NCc4ccccc4)cc3)cc12` [Example 170, 4-(2-Amino-4-isopropoxy-quinazolin-6-yl)-N-benzyl-benzamide], the CC50 at 3 days in data set [1] was less than 10 µM. In the data set with HCV replicon, this compound gave an EC50 of 0.3 to 1 µM.

In data set [1], `Nc1nc(O[C@@H]2CCOC2)c2cc(-c3ccc(C(=O)NCC(F)(F)F)cc3)ccc2n1` [Example 219, (R)-4-[2-Amino-4-(tetrahydro-furan-3-yloxy)-quinazolin-6-yl]-N-(2,2,2-trifluoro-ethyl)-benzamide] yielded a CC50 at 3 days greater than 20 µM. Moreover, the EC50 in the data set on HCV replicon was less than 0.3 µM.

As to `Nc1nc(OCC2CCC2)c2cc(-c3cc4ccccc4o3)ccc2n1` [Example 114, 6-Benzofuran-2-yl-4-cyclobutylmethoxy-quinazolin-2-ylamine], the CC50 at 3 days in data set [1] lay within 10 to 20 µM. This compound also yielded an EC50 in the data set on HCV replicon of 1 to 10 µM.

`Nc1nc(OCCN2CCOCC2)c2cc(-c3ccsc3)ccc2n1` [Example 236, 4-(2-Morpholin-4-yl-ethoxy)-6-thiophen-3-yl-quinazolin-2-ylamine] returned a CC50 at 3 days in data set [1] greater than 20 µM. Besides, the EC50 in the data set on HCV replicon is 1 to 10 µM.

Regarding `CC(C)Oc1nc(N)nc2ccc(-c3ccc(C(=O)NC4CCCCC4)cc3)cc12` [Example 172, 4-(2-Amino-4-isopropoxy-quinazolin-6-yl)-N-cyclohexyl-benzamide], the CC50 at 3 days in data set [1] is less than 10 µM. This compound showed an EC50 in the data set with HCV replicon of 0.3 to 1 µM.

Regarding `Nc1nc(OCCF)c2cc(-c3ccc(C(=O)NC4CC4)c(Cl)c3)ccc2n1` [Example 208, 4-[2-Amino-4-(2-fluoro-ethoxy)-quinazolin-6-yl]-2-chloro-N-cyclopropyl-benzamide], the CC50 at 3 days in data set [1] was greater than 20 µM. For the same compound, in the data set with HCV replicon, the EC50 fell in the range of 1 to 10 µM.

As a reminder, the CC50 is the concentration giving 50% cytotoxicity. A high value points to lower toxicity to the cells. By EC50 is commonly meant the concentration that produces a half-maximal response.

(Values after US8673929B2, “4,6-di- and 2,4,6-trisubstituted quinazoline derivatives and pharmaceutical compositions useful for treating viral infections” (priority 2006, dated 2014).)
